Results reported in ChEMBL document CHEMBL1828546, “Aminothiophenedicarboxamides and dicyanothiopheneacetamides as effective synthetic molluscicides against Indoplanorbis exustus snail” (Eur J Med Chem, 2011).
Active and inactive are the calls of the source. The calls are words filed in the database; no cut-off is given here.

Legend:
Type in all cases: functional
Indoplanorbis exustus [1] = assay: Molluscicidal activity against Indoplanorbis exustus assessed as mortality at 0.02 ppm after 24 hrs
Indoplanorbis exustus [2] = assay: Molluscicidal activity against Indoplanorbis exustus assessed as mortality at 0.04 ppm after 24 hrs
Indoplanorbis exustus [3] = assay: Molluscicidal activity against Indoplanorbis exustus assessed as mortality at 0.06 ppm after 24 hrs
Indoplanorbis exustus [4] = assay: Molluscicidal activity against Indoplanorbis exustus assessed as mortality at 0.08 ppm after 24 hrs
Indoplanorbis exustus [5] = assay: Molluscicidal activity against Indoplanorbis exustus after 24 hrs
Indoplanorbis exustus [6] = assay: Molluscicidal activity against Indoplanorbis exustus assessed as mortality at 0.02 to 40 ppm after 24 hrs
Indoplanorbis exustus [7] = assay: Molluscicidal activity against Indoplanorbis exustus assessed as mortality at 10 ppm after 24 hrs
Indoplanorbis exustus [8] = assay: Molluscicidal activity against Indoplanorbis exustus assessed as mortality at 20 ppm after 24 hrs
Indoplanorbis exustus [9] = assay: Molluscicidal activity against Indoplanorbis exustus assessed as mortality at 30 ppm after 24 hrs
Indoplanorbis exustus [10] = assay: Molluscicidal activity against Indoplanorbis exustus assessed as mortality at 40 ppm after 24 hrs

## CC(=O)Nc1sc(C#N)c(-c2cc(C(F)(F)F)cc(C(F)(F)F)c2)c1C#N
Indoplanorbis exustus [1]
  Activity: 20%
Indoplanorbis exustus [2]
  Activity: 30%
Indoplanorbis exustus [3]
  Activity: 50%
Indoplanorbis exustus [4]
  Activity: 70%
Indoplanorbis exustus [5]
  LC50: 0.74 ppm

## Cc1nc2sc(C(N)=O)c(-c3ccc(Cl)cc3)c2c(=O)[nH]1
Indoplanorbis exustus [6]
  Activity: inactive

## N#Cc1sc(N)c(C#N)c1-c1cc(C(F)(F)F)cc(C(F)(F)F)c1
Indoplanorbis exustus [6]
  Activity: inactive

## NC(=O)c1sc(N)c(C(N)=O)c1-c1ccc(Cl)cc1
Indoplanorbis exustus [7]
  Activity: 0%
Indoplanorbis exustus [8]
  Activity: 20%
Indoplanorbis exustus [9]
  Activity: 30%
Indoplanorbis exustus [10]
  Activity: 50%
Indoplanorbis exustus [5]
  LC50: 0.604 ppm

## N#Cc1sc(N)c(C#N)c1-c1ccc(Cl)cc1
Indoplanorbis exustus [6]
  Activity: inactive

## N#Cc1sc(N)c(C#N)c1-c1ccc(F)cc1F
Indoplanorbis exustus [6]
  Activity: inactive

## CC(=O)Nc1sc(C#N)c(-c2ccc(F)cc2F)c1C#N
Indoplanorbis exustus [1]
  Activity: 20%
Indoplanorbis exustus [2]
  Activity: 40%
Indoplanorbis exustus [3]
  Activity: 50%
Indoplanorbis exustus [4]
  Activity: 60%
Indoplanorbis exustus [5]
  LC50: 0.763 ppm

## NC(=O)c1sc2nc(CCl)[nH]c(=O)c2c1-c1ccc(Cl)cc1
Indoplanorbis exustus [6]
  Activity: inactive

## CC(=O)Nc1sc(C#N)c(-c2ccc(Cl)cc2)c1C#N
Indoplanorbis exustus [1]
  Activity: 20%
Indoplanorbis exustus [2]
  Activity: 40%
Indoplanorbis exustus [3]
  Activity: 60%
Indoplanorbis exustus [4]
  Activity: 80%
Indoplanorbis exustus [5]
  LC50: 0.651 ppm

## NC(=O)c1sc(N)c(C(N)=O)c1-c1cc(C(F)(F)F)cc(C(F)(F)F)c1
Indoplanorbis exustus [7]
  Activity: 20%
Indoplanorbis exustus [8]
  Activity: 30%
Indoplanorbis exustus [9]
  Activity: 60%
Indoplanorbis exustus [10]
  Activity: 60%
Indoplanorbis exustus [5]
  LC50: 0.751 ppm

## NC(=O)c1sc(N)c(C(N)=O)c1-c1ccc(F)cc1F
Indoplanorbis exustus [7]
  Activity: 20%
Indoplanorbis exustus [8]
  Activity: 40%
Indoplanorbis exustus [9]
  Activity: 60%
Indoplanorbis exustus [10]
  Activity: 70%
Indoplanorbis exustus [5]
  LC50: 0.607 ppm
